Measurements: patent US9988380B2, “Quorum sensing inhibitors” (priority 2013, dated 2018)

What was measured:
rhlA-gfp(ASV) expression = assay: Inhibition of the Rhl QS system, rhlA-gfp(ASV) reporter in PAO1 wild-type and lasR mutant; type: cell-based, P. aeruginosa
Description: Inhibition of the Rhl and PQS QS systems in wild-type PAO1 and PAO1 lasR mutant. Wild-type P. aeruginosa PAO1 strains harboring either the rhlA-gfp(ASV) reporter or the pqsA-gfp(ASV) reporter, and a P. aeruginosa PAO1 lasR mutant harboring either the rhlA-gfp(ASV) reporter or the pqsA-gfp(ASV) reporter were used for this experiment (Refer to FIG. 11 for strain information). Overnight cultures of these four strains were diluted 100-fold in ABTGC media within 96-well microtitre plates to a final volume of 200 μL per well. Each of the five QSIs was added in triplicate to a final concentration of 50 μM. 0.5% DMSO was used as a negative control. The microtitre plate was incubated at 37° C. in a Tecan Infinite 200 Pro plate reader where GFP and OD600 readings were measured at 15 min intervals.
Effect of QSIs on Rhl and Pqs Quorum-Sensing Systems. In order to address the problem of the specificity of present compounds, the five identified QSI compounds were tested to see if they had any effect on the rhl and pqs systems. The five QSIs were tested against a PAO1 wild-type and a PAO1 lasR mutant harboring either the rhlA-gfp (ASV) bioreporter or the pqsA-gfp (ASV) bioreporter. The rhlA system is dependent on the RhlR/I system. By doing so, we were able to determine if a QSI is able to inhibit the other two QS systems (i.e. rhl and pqs) in a lasR-dependent/independent manner (FIG. 8).

[1] = test system: P. aeruginosa PAO1 biofilms; assay: Glass slide biofilm assay for observation of eDNA release; type: cell-based; conditions: ABTG medium containing 25 μM G1, 24 h, PI staining
Description: Glass Slide Biofilm Assay for Observation of eDNA Release. The glass slide biofilm assay was performed (Liu et al. 2010 Synergistic activities of an efflux pump inhibitor and iron chelators against Pseudomonas aeruginosa growth and biofilm formation. Antimicrob Agents Chemother 54:3960-3963). Briefly, gfp-tagged P. aeruginosa PAO1 biofilms were cultivated in 50 ml BD falcon tubes containing 15 ml ABTG medium. A sterile 24 mm×60 mm glass cover slide was inserted into each falcon tube for supporting biofilm growth. G1 (10 μm) was added into the biofilm medium to examine its impact on P. aeruginosa PAO1 biofilm formation. DMSO was added alone to the medium as control. Biofilms were incubated at 37° C. without shaking. 2 μM propidium iodide (Sigma-Aldrich) was added to biofilm cultures to stain extracellular DNA for 5 min after 24-hour growth. After that, biofilm attached glass slides were observed by confocal laser scanning microscopy (CLSM).

[2] = test system: P. aeruginosa PAO1 strain; assay: iTRAQ-based quantitative proteomic analysis; type: cell-based; conditions: 25 μM G1
Description: iTRAQ-Based Proteomics Analyses for G1. Isobaric tag for relative and absolute quantitation (iTRAQ)-based proteomic analysis was used to study the changes in protein expression of the P. aeruginosa PAO1 strain in response to the addition of 25 μM of G1. Proteomics experiments were performed at the Proteomic Core Facility of the Biological Research Center, School of Biological Sciences, Nanyang Technological University, Singapore. A full description of the proteomics workflow is given below.
Protein preparation and digestion. The P. aeruginosa PAO1 strain was grown in ABTG media. Sub-lethal concentrations of G1 (25 μM) were added to independent P. aeruginosa PAO1 cultures respectively. Cultures were grown in LB medium at 37° C. with shaking until late log phase (OD 600 nm=1.0) before harvesting. After harvesting, cell pellets were washed with 1×PBS and resuspended in 2 ml of lysis buffer containing 0.5M TEAB and 0.1M SDS. The cells were ruptured by sonication, and the cell debris was removed by centrifugation at 4° C. at 16000×g for 15 min. 200 μg of proteins from different growth conditions were dissolved in equal volume of sample buffer (Invitrogen) supplemented with 0.5% 2-mercaptoethanol and denatured by boiling at 95° C. for 5 min. 1D gel electrophoresis was carried out using 10% SDS-PAGE for in-gel digestion.
Proteins were first reduced using 5 mM Tris-(2-carboxyethyl)phosphine (TCEP) for 1 h at 60° C., followed by blocking of cysteine residues by 10 mM methyl methanethiosulfate (MMTS) for 30 min at room temperature in the dark. Trypsin was added at a ratio of 1:50 (trypsin/sample). It was then incubated at 37° C. overnight. The tryptic peptides were extracted by 50% ACN/5% Acetic Acid from gel for 3 times and were desalted using Sep-Pak C18 cartridges (Waters, Milford, Mass.) and dried in a SpeedVac (Thermo Electron, Waltham, Mass.). All chemicals were purchased from Sigma-Aldrich unless stated otherwise.
iTRAQ labeling. The iTRAQ labeling of the tryptic peptides was performed using 4-plex iTRAQ reagent kit (Applied Biosystems, Foster City, Calif.), according to the manufacturers protocol. 200 μg of peptides from each condition were individually labeled with respective isobaric tags: control sample with 114, and the G1 treated sample with 115. After 2 h incubation, the samples were quenched by water, desalted using C18 solid phase extraction cartridge, and then vacuum-centrifuged to dryness. […] The HPLC chromatograms were recorded at 280 nm and fractions were collected online using automated fraction collector. 20 fractions were collected and concentrated using vacuum centrifuge and reconstituted in 3% ACN with 0.1% formic acid for LC-MS/MS analysis.
LC-MS/MS. The peptides were separated and analyzed on a home-packed nanobore C18 column (15 cm×75 μm; Reprosil-Pur C18-AQ, 3 μm, Dr Maisch, Germany) with a Picofritnanospray tip (New Objectives, Woburn, Mass., USA) on a Tempo™ nano-MDLC system coupled with a QSTAR® Elite Hybrid LC-MS/MS system (Applied Biosystems). Peptides from each fraction were analyzed in triplicate by LC-MS/MS over a gradient of 90 min. The flow rate of the LC system was set to a constant 300 nl/min. Data acquisition in QSTAR Elite was set to positive ion mode using Analyst® QS 2.0 software (Applied Biosystems). MS data was acquired in positive ion mode with a mass range of 300-1600 m/z. Peptides with +2 to +4 charge states were selected for MS/MS. For each MS spectrum, the three most abundant peptides above a five-count threshold were selected for MS/MS and dynamically excluded for 30 s with a mass tolerance of 0.03 Da. Smart information-dependent acquisition was activated with automatic collision energy and automatic MS/MS accumulation. The fragment intensity multiplier was set to 20 and maximum accumulation time was 2 s.
Data analysis. […]

N=c1[nH]c(=O)c2nn[nH]c2[nH]1 [Compound G1, 5-imino-4,6-dihydro-3H-1,2,3-triazolo[5,4-d]pyrimidin-7-one]
inhibition of rhlA-gfp expression (rhlA-gfp(ASV) expression; PAO1 lasR mutant, 50 μM QSI): 46.5%
induction of the rhl QS system (rhlA-gfp(ASV) expression; data not shown): delay the induction of the rhl QS system
inhibition of rhlA-gfp expression (rhlA-gfp(ASV) expression; wild-type PAO1, 50 μM QSI): 23.1%
extracellular DNA (eDNA) in biofilms [1]: less eDNA was observed
abundance of protease IV (PA4175), 115:114 [2]: 0.29
change in abundance of pyoverdine chromophore synthetase (pvdL; PA2424) [2]: −0.73 fold
change in abundance of pyoverdine synthetase D (pvdD; PA2399) [2]: −0.89 fold
elastase (lasB; PA3724) in the proteomics result [2]: not identified as down-regulated
number of proteins with abundance upregulated ([2]; 115:114 score at least 1.5): 19
number of proteins with abundance down-regulated ([2]; 115:114 score below 0.66): 27
number of proteins significantly affected ([2]; p-value (115:114) cut-off 0.05): 46
